Measured values: US8975406B2, “Compound useful for the treatment of degenerative and inflammatory diseases” (Galapagos N.V., priority 2011, dated 2015)

How the values were obtained:
Assay type in all cases: biochemical
[1] = biological target: T1, Recombinant human JAK1 (Homo sapiens, UniProt P23458); test: JAK1 Ulight-JAK1 peptide assay; conditions: Ulight-JAK1(tyr1023) peptide, 7 μM ATP
T1 construct: catalytic domain (amino acids 866-1154; catalog number PV4774); purchased Invitrogen PV4774
Experimental: Recombinant human JAK1 (catalytic domain, amino acids 866-1154; catalog number PV4774) was purchased from Invitrogen. 1 ng of JAK1 was incubated with 20 nM Ulight-JAK1(tyr1023) peptide (Perkin Elmer catalog number TRF0121) in kinase reaction buffer (25 mM MOPS pH6.8, 0.01% Brij-35, 5 mM MgCl2, 2 mM DTT, 7 μM ATP) with or without 4 μL containing test compound or vehicle (DMSO, 1% final concentration), in a total volume of 20 μL, in a white 384 Opti plate (Perkin Elmer, catalog number 6007290). After 60 min at room temperature, reactions were stopped by adding 20 μL/well of detection mixture (1× detection buffer (Perkin Elmer, catalog number CR97-100C), 0.5 nM Europium-anti-phosphotyrosine (PT66) (Perkin Elmer, catalog number AD0068), 10 mM EDTA). Readout is performed using the Envision with excitation at 320 nm and measuring emission at 615 nm (Perkin Elmer). Kinase activity was calculated by subtracting relative fluorescence units (RFU) obtained in the presence of a positive control inhibitor (10 μM staurosporine) from RFU obtained in the presence of vehicle. The ability of a test compound to inhibit this activity was determined as: Percentage inhibition=((RFU determined for sample with test compound present−RFU determined for sample with positive control inhibitor)divided by(RFU determined in the presence of vehicle−RFU determined for sample with positive control inhibitor))*100.
(§1) Dose dilution series were prepared for the compounds enabling the testing of dose-response effects in the JAK1 assay and the calculation of the IC50 for the compound. Each compound is routinely tested at concentration of 20 μM followed by a ⅕ serial dilution, 10 points in a final concentration of 1% DMSO. When potency of compound series increases, more dilutions are prepared and/or the top concentration are lowered (e.g. 5 μM, 1 μM). The data are expressed as the average IC50 from the assays±standard error of the mean.

[2] = biological target: T2, Recombinant human JAK2 (Homo sapiens, UniProt O60674); test: JAK2 Ulight-JAK1 peptide assay; conditions: Ulight-JAK1(tyr1023) peptide, 7.5 μM ATP
T2 construct: catalytic domain (amino acids 808-1132; catalog number PV4210); GST; purchased Invitrogen PV4210
Experimental: Recombinant human JAK2 (catalytic domain, amino acids […]; catalog number PV4210) was purchased from Invitrogen. 0.0125 mU of JAK2 was incubated with 25 nM Ulight-JAK1(tyr1023) peptide (Perkin Elmer catalog number TRF0121) in kinase reaction buffer (25 mM HEPES pH7.0, 0.01% Triton X-100, 7.5 mM MgCl2, 2 mM DTT, 7.5 μM ATP) with or without 4 μL containing test compound or vehicle (DMSO, 1% final concentration), in a total volume of 20 μL, in a white 384 Opti plate (Perkin Elmer, catalog number 6007290). After 60 min at room temperature, reactions were stopped by adding 20 μL/well of detection mixture (1× detection buffer (Perkin Elmer, catalog number CR97-100C), 0.5 nM Europium-anti-phosphotyrosine (PT66) (Perkin Elmer, catalog number AD0068), 10 mM EDTA). Readout is performed using the Envision with excitation at 320 nm and measuring emission at 615 nm (Perkin Elmer). Kinase activity was calculated by subtracting relative fluorescence units (RFU) obtained in the presence of a positive control inhibitor (10 μM staurosporine) from RFU obtained in the presence of vehicle. The ability of a test compound to inhibit this activity was determined as: Percentage inhibition=((RFU determined for sample with test compound present−RFU determined for sample with positive control inhibitor)divided by(RFU determined in the presence of vehicle−RFU determined for sample with positive control inhibitor))*100.
as §1, with “each compound” for “the compounds”, “JAK2” for “JAK1”

[3] = biological target: T3, Recombinant human JAK3 catalytic domain (Homo sapiens, UniProt P52333); test: JAK3 inhibition assay; conditions: polyGT substrate, 33P-gamma-ATP filter assay, 1 μM ATP
T3 construct: catalytic domain (amino acids 795-1124; catalog number 08-046); purchased Carna Biosciences 08-046
Experimental: Recombinant human JAK3 catalytic domain (amino acids 795-1124; catalog number 08-046) was purchased from Carna Biosciences. 0.5 ng JAK3 protein was incubated with 2.5 μg polyGT substrate (Sigma catalog number P0275) in kinase reaction buffer (25 mM Tris pH 7.5, 0.5 mM EGTA, 10 mM MgCl2, 2.5 mM DTT, 0.5 mM Na3VO4, 5 mM b-glycerolphosphate, 0.01% Triton X-100, 1 μM non-radioactive ATP, 0.25 μCi ^33P-gamma-ATP (Perkin Elmer, catalog number NEG602K001MC) final concentrations) with or without 5 μL containing test compound or vehicle (DMSO, 1% final concentration), in a total volume of 25 μL, in a polypropylene 96-well plate (Greiner, V-bottom). After 45 min at 30° C., reactions were stopped by adding 25 μL/well of 150 mM phosphoric acid. All of the terminated kinase reaction was transferred to prewashed (75 mM phosphoric acid) 96 well filter plates (Perkin Elmer catalog number 6005177) using a cell harvester (Perkin Elmer). Plates were washed 6 times with 300 μL per well of a 75 mM phosphoric acid solution and the bottom of the plates was sealed. 40 μL/well of Microscint-20 was added, the top of the plates was sealed and readout was performed using the Topcount (Perkin Elmer). Kinase activity was calculated by subtracting counts per min (cpm) obtained in the presence of a positive control inhibitor (10 μM staurosporine) from cpm obtained in the presence of vehicle. The ability of a test compound to inhibit this activity was determined as: Percentage inhibition=((cpm determined for sample with test compound present−cpm determined for sample with positive control inhibitor)divided by(cpm determined in the presence of vehicle−cpm determined for sample with positive control inhibitor))*100.
Dose dilution series were prepared for the compounds enabling the testing of dose-response effects in the JAK3 assay and the calculation of the IC50 for each compound. Each compound was routinely tested at concentration of 20 μM followed by a ⅕ serial dilution, 10 points in a final concentration of 1% DMSO. When potency of compound series increased, more dilutions were prepared and/or the top concentration was lowered (e.g. 5 μM, 1 μM).

T1 sequence (P23458 866-1154): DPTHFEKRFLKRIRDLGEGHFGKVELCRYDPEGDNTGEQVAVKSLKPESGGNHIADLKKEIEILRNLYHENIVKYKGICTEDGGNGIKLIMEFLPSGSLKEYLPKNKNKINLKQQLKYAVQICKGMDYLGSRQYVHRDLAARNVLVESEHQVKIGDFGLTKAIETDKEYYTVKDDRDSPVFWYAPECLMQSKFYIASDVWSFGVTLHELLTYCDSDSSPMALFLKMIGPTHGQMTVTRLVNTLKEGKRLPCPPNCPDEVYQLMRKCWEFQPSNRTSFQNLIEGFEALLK
T2 sequence (O60674 808-1132): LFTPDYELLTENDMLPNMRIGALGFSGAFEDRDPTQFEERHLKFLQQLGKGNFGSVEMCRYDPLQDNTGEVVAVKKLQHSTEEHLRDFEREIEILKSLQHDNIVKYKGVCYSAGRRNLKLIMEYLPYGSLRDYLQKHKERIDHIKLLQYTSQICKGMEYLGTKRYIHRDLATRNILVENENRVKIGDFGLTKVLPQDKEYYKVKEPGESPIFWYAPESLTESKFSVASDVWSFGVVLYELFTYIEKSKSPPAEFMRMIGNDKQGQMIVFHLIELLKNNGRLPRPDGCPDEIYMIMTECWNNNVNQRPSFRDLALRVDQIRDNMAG
T3 sequence (P52333 795-1124): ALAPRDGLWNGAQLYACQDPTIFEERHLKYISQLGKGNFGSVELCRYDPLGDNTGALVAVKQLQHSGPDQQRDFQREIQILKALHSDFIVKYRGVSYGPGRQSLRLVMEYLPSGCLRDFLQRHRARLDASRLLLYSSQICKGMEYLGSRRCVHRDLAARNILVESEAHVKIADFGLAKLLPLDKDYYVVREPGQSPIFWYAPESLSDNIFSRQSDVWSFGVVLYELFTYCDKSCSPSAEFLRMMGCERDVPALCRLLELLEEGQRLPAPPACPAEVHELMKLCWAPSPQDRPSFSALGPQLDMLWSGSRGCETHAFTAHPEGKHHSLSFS

| Structure (SMILES) | IC50 [1] [µM] | IC50 [2] [µM] | IC50 [3] [µM] |
| --- | --- | --- | --- |
| CC(=O)Nc1cc2c(-c3ccc(C(=O)N4CC(F)(F)C4)cc3)cccn2n1 [Compound 41, N-(4-(4-(3,3-difluoroazetidine-1-carbonyl)phenyl)pyrazolo[1,5-a]pyridin-2-yl)acetamide] | 0.101 to 0.5 | 0.101 to 0.5 | – |
| CC(=O)Nc1cc2c(-c3ccc(CC(=O)N4CCC4)cc3)cccn2n1 [Compound 33, N-(4-(4-(2-(azetidin-1-yl)-2-oxoethyl)phenyl)pyrazolo[1,5-a]pyridin-2-yl)acetamide] | 0.101 to 0.5 | 0.101 to 0.5 | > 1 |
| CC(=O)Nc1cc2c(-c3ccc(CC(=O)N4C[C@@H](C)O[C@@H](C)C4)cc3)cccn2n1 [Compound 37, N-(4-(4-(2-((2S,6R)-2,6-dimethylmorpholino)-2-oxoethyl)phenyl)pyrazolo[1,5-a]pyridin-2-yl)acetamide] | > 1 | 0.101 to 0.5 | – |
| O=C(Nc1nn2cccc(-c3ccc(C(=O)N4CCCCC4)cc3)c2c1Cl)C1CC1 [Compound 16, N-(3-chloro-4-(4-(piperidine-1-carbonyl)phenyl)pyrazolo[1,5-a]pyridin-2-yl)cyclopropanecarboxamide] | 0.101 to 0.5 | > 1 | – |
| CC(=O)Nc1cc2c(-c3cnc(OCCn4cccn4)c(F)c3)cccn2n1 [Compound 30] | 0.101 to 0.5 | 0.101 to 0.5 | – |
| CC(=O)Nc1cc2c(-c3ccc(C(=O)N4CCCCC4)cc3)cccn2n1 [Compound 40, N-(4-(4-(piperidine-1-carbonyl)phenyl)pyrazolo[1,5-a]pyridin-2-yl)acetamide] | 0.101 to 0.5 | 0.101 to 0.5 | – |
| CC(=O)Nc1cc2c(-c3ccc(C(=O)N4CCC4)cc3)cccn2n1 [Compound 32, N-(4-(4-(azetidine-1-carbonyl)phenyl)pyrazolo[1,5-a]pyridin-2-yl)acetamide] | 0.101 to 0.5 | 0.101 to 0.5 | – |

Other lines, results leading:

| IC50 [1] [µM] | IC50 [2] [µM] | IC50 [3] [µM] | Structure (SMILES) |
| --- | --- | --- | --- |
| 0.101 to 0.5 | 0.101 to 0.5 | – | CC(=O)Nc1cc2c(-c3ccc(C(=O)N4COCC4(C)C)cc3)cccn2n1 [Compound 31, N-(4-(4-(4,4-dimethyloxazolidine-3-carbonyl)phenyl)pyrazolo[1,5-a]pyridin-2-yl)acetamide] |
| 0.501 to 1 | 0.101 to 0.5 | – | CC(=O)Nc1cc2c(-c3ccc(C(=O)N4CCOCC4)cc3)cccn2n1 [Compound 42, N-(4-(4-(morpholine-4-carbonyl)phenyl)pyrazolo[1,5-a]pyridin-2-yl)acetamide] |
| 0.101 to 0.5 | 0.101 to 0.5 | – | COC(=O)N1CCN(Cc2ccc(-c3cccn4nc(NC(C)=O)cc34)cc2)CC1 [Compound 22] |
| 0.101 to 0.5 | 0.101 to 0.5 | – | CC(=O)Nc1cc2c(-c3ccc(C(=O)N4C[C@@H](C)O[C@@H](C)C4)cc3)cccn2n1 [Compound 39, N-(4-(4-((2S,6R)-2,6-dimethylmorpholine-4-carbonyl)phenyl)pyrazolo[1,5-a]pyridin-2-yl)acetamide] |
